Experimental data published in ChEMBL document CHEMBL4251753, “Discovery of Potent 2-Aryl-6,7-dihydro-5 H-pyrrolo[1,2- a]imidazoles as WDR5-WIN-Site Inhibitors Using Fragment-Based Methods and Structure-Based Design” (J Med Chem, 2018).

Tested on: MV4-11
Assay: Antiproliferative activity against human MV4-11 cells after 7 days by cell titer glo assay
Format: functional
Conditions: MV4-11, 168 h

| Compound | GI50 [µM] |
| --- | --- |
| O=C(Cc1ccc(Cl)c(Cl)c1)N[C@@H]1CCc2ccc(-c3cn4c(n3)CCC4)cc21 | 8.89 |
| Cc1cc(C(=O)N[C@@H]2CCc3ccc(-c4cn5c(n4)CCC5)cc32)ccn1 | > 30 |
| COc1cc(C(=O)N[C@@H]2CCc3ccc(-c4cn5c(n4)CCC5)cc32)cc(OC)c1C | 7.25 |
| COc1cc(C(=O)N[C@@H]2CCCc3ccc(-c4cn5c(n4)CCC5)cc32)ccc1C | 22.3 |
